From patent US6156790A, “C-10 carbon-substituted artemisinin-like trioxane compounds having antimalarial, antiproliferative and antitumor activities” (priority 1997, dated 2000)
Blank lines part the entries; values can stand above or below the molecule they belong to.

Experiments:
[1] = tested on: chloroquine-sensitive P. falciparum (NF54); assay: In vitro antimalarial activity ([3H]hypoxanthine incorporation); type: cell-based; conditions: for IC50: Plasmodium falciparum, NF54; for IC50 compared with artemisinin: in words
Procedure: Activity was determined by measuring the incorporation of [^3 H]hypoxanthine, by the methods of Desjardins and Milhouse, with the following modofications, see […].; Haynes, […]. Antimicrob. Agents Chemother., 16:710 (1979); Milhous, W. K.; Weatherly, […].; Antimicrob. Agents Chemother., 27: 525 (1985). […] Parasitemia was maintained at 0.05-3% and doubling time at approximately 15 hours by twice weekly change of medium and replenishment with fresh erythrocytes. […] Sigma-Aldrich #27,043-1). DMSO solutions were diluted 500-fold in medium, serially diluted in 0.2% DMSO in medium (to maintain constant solvent concentration), then 100 μL aliquots were pipetted into microtiter plate wells (Costar 3595). […] Plates included at least 8 wells of no drug controls (4 with and 4 without DMSO) and 4 wells of uninfected erythrocytes. […] Cells were harvested (Brandel MB-48R) onto GF-C glass filters (Brandel). The filters were washed five times with 3 mL water per sample spot, dried under a heat lamp, and counted (Beckman Model LS-6500) in scintillation cocktail (ICN Cytoscint). Decays per minute (dpm) values were downloaded and analyzed (Power MFacintosh 7200/90; Microsoft Excel 5.0), to yield the mean and standard deviation at each drug concentration.

[2] = tested on: murine keratinocyte cell line PE; assay: growth inhibition of PE cells (MTT assay); type: cell-based; conditions: 100 nanomolar
Procedure: To determine the inhibitory effect of the compositions of the present invention on cell proliferation, screening assays were performed on a murine keratinocyte cell line PE. Cell line PE was chosen for its particular sensitivity to the induction of ornithine decarboxylase (ODC) activity by the extensively characterized tumor promoter TPA. […] PE cell culture medium consisted of Eagle's minimal essential medium without calcium chloride (Whittaker Bioproducts, Walkersville, Mass.) supplemented with 8% chelexed fetal calf serum and 1% antibiotic-antimycotic (Gibco BRL) and the addition of CaCl2 to 0.05 mM Ca^++.
Growth Inhibition. Growth curves, shown in FIGS. 1 and 2, for PE cells treated with calcitriol and the C-10 carbon-substituted dimers 21, 22, 26, 27, and 28 generated by assay for the reduction of the tetrazolium-based compound MTT, see Charmichael, et al., Cancer Res., 47:936-942 (1987). […] PE cells were seeded at a density of 5,000 cells/well in 50 μL of medium into 96-well microtiter plates. Twelve hours later, the medium was removed, and cells were treated with 100 μL of fresh medium into which the appropriate amount of calcitrol or analog dissolved in dimethyl sulfoxide (DMSO) had been added, with the concentration of DMSO held constant at 0.1%. […] At 24-hour intervals following the initial treatment of the cells with compounds, 0.1 mg (50 μL of a 2 mg/mL solution) of MTT was added to each well. After 4 hours, the MTT was removed and DMSO added to dissolve the blue formazan dye. Using a microtiter plate reader, the A505 was then determined and cell number calculated from blank-subtracted absorbance values.

IGROVI = assay: cells; conditions: 60 cell, read-out: Log10 GI50 (converted)
60 cell line panel = assay: NCI 60 cell line screen, whole panel; type: cell-based; conditions: panel
CAKI-1 = assay: NCI 60 cell line screen (SRB), renal cancer; conditions: Homo sapiens
EKVX = assay: NCI 60 cell line screen (SRB), non-small cell lung cancer; type: cell-based; conditions: Homo sapiens, read-out: Log10 GI50 (converted)
NCI-H23 = assay: as above; type: cell-based; conditions: Homo sapiens, read-out: Log10 GI50 (converted)
UACC-62 = assay: cells; type: cell-based; conditions: Homo sapiens, read-out: Log10 TGI (converted)
HL-60(TB) = assay: cells; conditions: Homo sapiens, HL-60, read-out: Log10 LC50 (converted)
ACHN = assay: cells; conditions: Homo sapiens
RXF 393 = assay: cells; conditions: Homo sapiens

Compound: COc1cc(OC)c([C@@H]2O[C@@H]3O[C@@]4(C)CC[C@H]5[C@H](C)CC[C@@H]([C@H]2C)[C@@]35OO4)cc1[C@@H]1O[C@@H]2O[C@@]3(C)CC[C@H]4[C@H](C)CC[C@@H]([C@H]1C)[C@@]24OO3 [Dimer 26]
antiproliferative activity compared with calcitriol [2]: at least as antiproliferative as calcitrol

Compound: C[C@H]1[C@@H](C#Cc2cccc(C#C[C@H]3O[C@@H]4O[C@@]5(C)CC[C@H]6[C@H](C)CC[C@@H]([C@H]3C)[C@@]46OO5)c2)O[C@@H]2O[C@@]3(C)CC[C@H]4[C@H](C)CC[C@@H]1[C@@]24OO3 [Dimer 27]
antiproliferative activity compared with calcitriol [2]: at least as antiproliferative as calcitrol

Compound: C[C@H]1[C@@H](C#Cc2ccc(C#C[C@H]3O[C@@H]4O[C@@]5(C)CC[C@H]6[C@H](C)CC[C@@H]([C@H]3C)[C@@]46OO5)cc2)O[C@@H]2O[C@@]3(C)CC[C@H]4[C@H](C)CC[C@@H]1[C@@]24OO3 [Dimer 28]
antiproliferative activity compared with calcitriol [2]: at least as antiproliferative as calcitrol

Compound: COc1ccc([C@@H]2O[C@@H]3O[C@@]4(C)CC[C@H]5[C@H](C)CC[C@@H]([C@H]2C)[C@@]35OO4)c(OC)c1 [Monomer 13]
IC50 ([1]; survey data (preliminary)): 8.9 nM
IC50 compared with artemisinin [1]: lower than that of artemisinin

Compound: COc1cc(OC)c([C@@H]2O[C@@H]3O[C@@]4(C)CC[C@H]5[C@H](C)CC[C@@H]([C@H]2C)[C@@]35OO4)c(OC)c1 [Monomer 14]
IC50 ([1]; survey data (preliminary)): 11 nM

Compound: COc1ccc2cc([C@@H]3O[C@@H]4O[C@@]5(C)CC[C@H]6[C@H](C)CC[C@@H]([C@H]3C)[C@@]46OO5)c(OC)cc2c1 [Monomer 15, 10α-(2',7'-dimethoxynaphth-3'-yl)deoxoartemisinin]
IC50 ([1]; survey data (preliminary)): 11 nM

Compound: CC(=O)O[C@H]1C(=O)[C@@]2(C)[C@H]([C@H](OC(=O)c3ccccc3)[C@]3(O)C[C@H](OC(=O)[C@H](O)[C@@H](NC(=O)c4ccccc4)c4ccccc4)C(C)=C1C3(C)C)[C@]1(OC(C)=O)CO[C@@H]1C[C@@H]2O [Paclitaxel, paclitaxel, reference compound]
GI50 (IGROVI): 2.45 nM
GI50 (60 cell line panel; 60 cell, read-out: Log10 GI50 Delta (converted)): 0.0708 nM
Log10 TGI Delta (60 cell line panel): -4.54
Log10 TGI Range (60 cell line panel): 7.20
CC50 (CAKI-1; CAKI-1, read-out: Log10 LC50 (converted)): > 100000 nM
IC (TGI) (CAKI-1; CAKI-1, read-out: Log10 TGI): 91200 nM
GI50 (EKVX): 0.214 nM
GI50 (NCI-H23): 0.0759 nM
IC (TGI) (UACC-62): 19500 nM
CC50 (HL-60(TB)): > 29500 nM
CC50 (ACHN; read-out: Log10 LC50 (converted)): 35500 nM
IC (TGI) (ACHN; read-out: Log10 TGI): 12600 nM
CC50 (RXF 393; RXF 393, read-out: Log10 LC50 (converted)): > 100000 nM
IC (TGI) (RXF 393; RXF 393, read-out: Log10 TGI): > 100000 nM

Now from value to molecule:

IC50 [1]: 5.4 nM
IC50 compared with artemisinin [1]: lower than that of artemisinin
Compound: CO[C@H]1O[C@@H]2O[C@@]3(C)CC[C@H]4[C@H](C)CC[C@@H]([C@H]1C)[C@@]24OO3 [Artemether, artemether, reference compound]

IC50 ([1]; survey data (preliminary)): 16 nM
Compound: C[C@H]1[C@@H](C#Cc2ccc(Cl)cc2)O[C@@H]2O[C@@]3(C)CC[C@H]4[C@H](C)CC[C@@H]1[C@@]24OO3 [Monomer 9, 10β-(4'-Chlorophenylethynyl) deoxoartemisinin]

IC50 ([1]; survey data (preliminary)): 8.4 nM
IC50 compared with artemisinin [1]: lower than that of artemisinin
Compound: C[C@H]1[C@H](c2cccn2C)O[C@@H]2O[C@@]3(C)CC[C@H]4[C@H](C)CC[C@@H]1[C@@]24OO3 [Monomer 16, 10α-(N-methylpyrrol-2'-yl)deoxoartemisinin]

IC50 ([1]; survey data (preliminary)): 1.5 nM
IC50 compared with artemisinin [1]: lower than that of artemisinin
Compound: C[C@H]1[C@H](c2ccco2)O[C@@H]2O[C@@]3(C)CC[C@H]4[C@H](C)CC[C@@H]1[C@@]24OO3 [Monomer 17]
